Reference: patent US12275729B2 (Merck Sharp & Dohme LLC, priority 2017, dated 2025)

Experiments:
[1] = target: T1, IDO1 (Homo sapiens, UniProt P14902); assay: IDO1 Human Whole Blood Assay; format: cell-based; set-up: Human whole blood was drawn in sodium heparin coated tubes from healthy internal donors; from tissue; host or cells: human whole blood from healthy donors, stimulated with LPS and IFNγ; details: LPS and IFNγ stimulated
Procedure: IDO1 Human Whole Blood Assay
Compounds to be tested were serially diluted in ten 3-fold steps in DMSO starting from 10 mM. […] LPS and IFNγ was prepared in RPMI to a 10× of final conc. (1000 ng/mL), final concentration is 100 ng/mL.
Human whole blood was drawn in sodium heparin coated tubes from healthy internal donors. 240 μL of blood was transferred to each of the wells of a v-bottom 96 well plate. 30 μL of compound was transferred from intermediate dilution plate, and incubated for 15 min. 30 μL from stimulants was then transferred to blood and mixed thoroughly.
On day 2 isotope labeled standard of kynurenine and tryptophan was made in water at 1Ox concentration and 30 μL was added to the blood at […] final concentration. The assay plates were centrifuged at 300×G for 10 min with no brake to separate plasma from red blood cells. 60 μL of plasma samples was removed without disturbing red blood cells. Plasma was diluted with RPMI in 1:1 ratio and proteins were precipitated out with two volume of Acetonitrile. The plates were centrifuged at 4000×G for 60 min. 20 μL of supernatant was carefully transferred to a 384 well plate contain 40 μL of 0.1% formic acid in water and analyzed by LC/MS/MS.
LC/MS/MS analyses were performed using Thermo Fisher's LX4-TSQ Quantum Ultra system. This system consists of four Agilent binary high-performance liquid chromatography (HPLC) pumps and a TSQ Quantum Ultra triple quadrupole MS/MS instrument. For each sample, 5 μL were injected onto an Atlantis T3 column (2.1 mm×150 mm, […] particle size) from Waters. The mobile phase gradient pumped at 0.8 mL/min was used to elute the analytes from the column at 25° C. […] Mobile phase A consisted of 0.1% formic acid in water. Mobile phase B consisted of 0.1% of formic acid in acetonitrile. Data was acquired in positive mode using a HESI interface. The operational parameters for the TSQ Quantum Ultra instrument were a spray voltage of 4000 V, capillary temperature of 380° C., vaporizer temperature 400° C., shealth gas 60 arbitrary units, Aux gas 20 arbitrary units, tube lens 85 and collision gas 1.2 mTorr. […] The peak area was integrated by Xcalibur Quan software. The ratios between the kynurenine generated in the reaction and 2D6-Kynurenine spiked-in internal standard were used to generate percentage inhibition and IC50 values.

[2] = target: T1, IDO1; assay: IDO1 Cellular Assay in HeLa Cells Stimulated with IFNγ; format: cell-based; details: read-out: Hela IC50

T1 sequence (P14902 whole entry): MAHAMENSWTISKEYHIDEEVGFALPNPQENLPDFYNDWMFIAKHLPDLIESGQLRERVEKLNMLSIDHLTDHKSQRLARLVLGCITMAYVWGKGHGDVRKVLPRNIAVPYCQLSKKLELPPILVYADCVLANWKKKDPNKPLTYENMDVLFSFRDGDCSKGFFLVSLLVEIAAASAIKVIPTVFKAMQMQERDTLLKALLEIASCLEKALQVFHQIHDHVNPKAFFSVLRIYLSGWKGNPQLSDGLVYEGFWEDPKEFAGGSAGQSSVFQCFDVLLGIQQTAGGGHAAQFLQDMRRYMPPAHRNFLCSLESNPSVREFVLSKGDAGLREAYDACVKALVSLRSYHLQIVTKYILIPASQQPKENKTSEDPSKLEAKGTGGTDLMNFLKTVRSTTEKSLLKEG

Compound `O=C(OC1CC1)N1CCCc2nc(C3(C(=O)Nc4ccc(F)cc4)COC3)ccc21` [Example 266, cyclopropyl 6-(3-((4-fluorophenyl)carbamoyl)oxetan-3-yl)-3,4-dihydro-1,5-naphthyridine-1(2H)-carboxylate] has an IC50 [1] of 4 nM and an IC50 ([2]; about 48 hours) of 2.8 nM.
`O=C(C1CC1)N1CCc2nc(C3(C(=O)Nc4ccc(F)cc4)CCC3)ccc21` [Example 268, 1-[1-(cyclopropanecarbonyl)-2,3-dihydro-1H-pyrrolo[3,2-b]pyridin-5-yl]-N-(4-fluorophenyl)cyclobutane-1-carboxamide] gave an IC50 [1] of 325 nM and an IC50 ([2]; about 48 hours) of 7.9 nM.
`O=C(OC1CC1)N1CCc2cc(C3(C(=O)Nc4ccc(F)cc4)CCC3)ccc21` [Example 270, cyclopropyl 5-{1-[(4-fluorophenyl)carbamoyl]cyclobutyl}-2,3-dihydro-1H-indole-1-carboxylate] was tested, and the IC50 [1] was 41 nM and the IC50 ([2]; about 48 hours) was 1.2 nM.
`O=C(Nc1ccc(Cl)cc1)C1(c2ccc3c(n2)CCN3c2ccccn2)CCC1` [Example 272, N-(4-chlorophenyl)-1-[1-(pyridin-2-yl)-2,3-dihydro-1H-pyrrolo[3,2-b]pyridin-5-yl]cyclobutane-1-carboxamide] gave an IC50 [1] of 336 nM and an IC50 ([2]; about 48 hours) of 1.9 nM.
With `O=C(OC1CC1)N1CCc2cc(C3(C(=O)Nc4ccc(Cl)cc4)CCC3)ccc21` [Example 273, cyclopropyl 5-{1-[(4-chlorophenyl)carbamoyl]cyclobutyl}-2,3-dihydro-1H-indole-1-carboxylate] the IC50 [1] was 90 nM and the IC50 ([2]; about 48 hours) was 2 nM.
`O=C(c1cccc(Cl)c1)N1CCc2nc(C3(C(=O)Nc4ccc(F)cc4)CCC3)ccc21` [Example 275, 1-[1-(3-chlorobenzene-1-carbonyl)-2,3-dihydro-1H-pyrrolo[3,2-b]pyridin-5-yl]-N-(4-fluorophenyl)cyclobutane-1-carboxamide] was tested, and the IC50 [1] was 93 nM and the IC50 ([2]; about 48 hours) was 3 nM.
`CC(NC(=O)c1ccc(F)cc1)c1ccc2c(n1)CCCN2C(=O)c1cc(Cl)ccn1` (centres unmarked) [Example 277, N-(1-(5-(4-chloropicolinoyl)-5,6,7,8-tetrahydro-1,5-naphthyridin-2-yl)ethyl)-4-fluorobenzamide] gave an IC50 [1] of 71 nM and an IC50 ([2]; about 48 hours) of 2.3 nM.
In the case of `CC(NC(=O)c1ccc(F)cc1)c1ccc2c(n1)CCCN2C(=O)c1cc(C(F)(F)F)ccn1` (centres unmarked) [Example 278, 4-fluoro-N-(1-(5-(4-(trifluoromethyl)picolinoyl)-5,6,7,8-tetrahydro-1,5-naphthyridin-2-yl)ethyl)benzamide], the IC50 [1] is reported as 50 nM and the IC50 ([2]; about 48 hours) is reported as 472 nM.
`CC(NC(=O)c1ccc(F)cc1)c1ccc2c(n1)CCCN2C(=O)c1cc(C(F)F)ccn1` (centres unmarked) [Example 279, N-(1-(5-(4-(difluoromethyl)picolinoyl)-5,6,7,8-tetrahydro-1,5-naphthyridin-2-yl)ethyl)-4-fluorobenzamide] was tested, and the IC50 [1] was 135 nM and the IC50 ([2]; about 48 hours) was 7.3 nM.
`CCc1ccnc(C(=O)N2CCCc3nc(C(C)NC(=O)c4ccc(Cl)cc4)ccc32)c1` (centres unmarked) [Example 286, 4-chloro-N-(1-(5-(4-ethylpicolinoyl)-5,6,7,8-tetrahydro-1,5-naphthyridin-2-yl)ethyl)benzamide] showed an IC50 [1] of 89 nM and an IC50 ([2]; about 48 hours) of 1.2 nM.
In the case of `Cc1ccnc(C(=O)N2CCCc3nc(C(C)NC(=O)c4ccc(Cl)cc4)ccc32)n1` (centres unmarked) [Example 287, 4-chloro-N-(1-(5-(4-methylpyrimidine-2-carbonyl)-5,6,7,8-tetrahydro-1,5-naphthyridin-2-yl)ethyl)benzamide], the IC50 [1] is reported as 6 nM and the IC50 ([2]; about 48 hours) is reported as 1.8 nM.
For `CC(NC(=O)c1ccc(Cl)cc1)c1ccc2c(n1)CCCN2C(=O)c1cc(C(F)F)ccn1` (centres unmarked) [Example 289, 4-chloro-N-(1-(5-(4-(difluoromethyl)picolinoyl)-5,6,7,8-tetrahydro-1,5-naphthyridin-2-yl)ethyl)benzamide], the IC50 [1] was 17 nM and the IC50 ([2]; about 48 hours) was 2.7 nM.
In the case of `Cc1cncc(N2CCCc3nc(C4(NC(=O)c5ccc(F)cc5)CC4)ccc32)n1` [Example 296, 4-fluoro-N-(1-(5-(6-methylpyrazin-2-yl)-5,6,7,8-tetrahydro-1,5-naphthyridin-2-yl)cyclopropyl)benzamide], the IC50 [1] is reported as 163 nM and the IC50 ([2]; about 48 hours) is reported as 1.51 nM.
With `Cc1nccc(N2CCCc3nc(C4(NC(=O)c5ccc(Cl)nc5)CC4)ccc32)n1` [Example 300, 6-chloro-N-(1-(5-(2-methylpyrimidin-4-yl)-5,6,7,8-tetrahydro-1,5-naphthyridin-2-yl)cyclopropyl)nicotinamide] the IC50 [1] was 63 nM and the IC50 ([2]; about 48 hours) was 1.9 nM.
With `Cc1nccc(N2CCCc3nc(C4(NC(=O)c5ccc(Br)cc5)CC4)ccc32)n1` [Example 301, 4-bromo-N-(1-(5-(2-methylpyrimidin-4-yl)-5,6,7,8-tetrahydro-1,5-naphthyridin-2-yl)cyclopropyl)benzamide] the IC50 [1] was 21 nM and the IC50 ([2]; about 48 hours) was 1.69 nM.
`Cc1ccc(C(=O)NC2(c3ccc4c(n3)CCCN4c3ccnc(C)n3)CC2)cc1` [Example 303, 4-methyl-N-(1-(5-(2-methylpyrimidin-4-yl)-5,6,7,8-tetrahydro-1,5-naphthyridin-2-yl)cyclopropyl)benzamide] gave an IC50 [1] of 106 nM and an IC50 ([2]; about 48 hours) of 2.15 nM.
Work on `Cc1nccc(N2CCCc3nc(C4(NC(=O)c5ccc(F)c(Br)c5)CC4)ccc32)n1` [Example 304, 3-bromo-4-fluoro-N-(1-(5-(2-methylpyrimidin-4-yl)-5,6,7,8-tetrahydro-1,5-naphthyridin-2-yl)cyclopropyl)benzamide] yielded an IC50 [1] of 81 nM and an IC50 ([2]; about 48 hours) of 2.79 nM.
In the case of `O=C(NC1(c2ccc3c(n2)CCCN3c2ccnc(C3CC3)n2)CC1)c1ccc(F)cc1` [Example 307, 5-(2-cyclopropylpyrimidin-4-yl)-2-(1-(4-fluorobenzamido)cyclopropyl)-5,6,7,8-tetrahydro-1,5-naphthyridin-1-ium 2,2,2-trifluoroacetate], the IC50 [1] is reported as 63 nM and the IC50 ([2]; about 48 hours) is reported as 0.89 nM.
`CC(NC(=O)c1ccc(F)cc1)c1ccc2c(n1)CCCN2C(=O)OCC(F)F` (centres unmarked) [Example 309, 2,2-difluoroethyl 6-(1-(4-fluorobenzamido)ethyl)-3,4-dihydro-1,5-naphthyridine-1(2H)-carboxylate] showed an IC50 [1] of 78 nM and an IC50 [2] of 24.6 nM.
With `CC(NC(=O)c1ccc(Cl)cc1)c1ccc2c(n1)CCCN2C(=O)OCC(F)(F)F` (centres unmarked) [Example 310] the IC50 [1] was 46 nM and the IC50 [2] was 1.61 nM.
With `CC(NC(=O)c1ccc(F)cc1)c1ccc2c(n1)CCCN2C(=O)OC(C)(C)C(F)(F)F` (centres unmarked) [Example 312] the IC50 [1] was 47 nM and the IC50 [2] was 9.87 nM.
`COC[C@@H](C)OC(=O)N1CCCc2nc(C(C)NC(=O)c3ccc(F)cc3)ccc21` (stereo partly drawn) [Example 315, (R)-1-methoxypropan-2-yl 6-(1-(4-fluorobenzamido)ethyl)-3,4-dihydro-1,5-naphthyridine-1(2H)-carboxylate] was tested, and the IC50 [1] was 18 nM and the IC50 [2] was 2.9 nM.
In the case of `Cc1cc(C)n(COC(=O)N2CCCc3nc(C(C)NC(=O)c4ccc(F)cc4)ccc32)n1` (centres unmarked) [Example 320, (3,5-dimethyl-1H-pyrazol-1-yl)methyl 6-(1-(4-fluorobenzamido)ethyl)-3,4-dihydro-1,5-naphthyridine-1(2H)-carboxylate], the IC50 [1] is reported as 1690 nM and the IC50 [2] is reported as 69.2 nM.
Work on `CC(NC(=O)c1ccc(F)cc1)c1ccc2c(n1)CCCN2C(=O)OCCCc1ccncc1` (centres unmarked) [Example 322, 3-(pyridin-4-yl)propyl 6-(1-(4-fluorobenzamido)ethyl)-3,4-dihydro-1,5-naphthyridine-1(2H)-carboxylate] yielded an IC50 [1] of 58 nM and an IC50 [2] of 453 nM.
Work on `CCN(CC)CCOC(=O)N1CCCc2nc(C(C)NC(=O)c3ccc(F)cc3)ccc21` (centres unmarked) [Example 324, 2-(diethylamino)ethyl 6-(1-(4-fluorobenzamido)ethyl)-3,4-dihydro-1,5-naphthyridine-1(2H)-carboxylate] yielded an IC50 [1] of 239 nM and an IC50 [2] of 3400 nM.
`COC[C@H](C)OC(=O)N1CCCc2nc(C(C)NC(=O)c3ccc(Cl)cc3)ccc21` (stereo partly drawn) [Example 330, (S)-1-methoxypropan-2-yl 6-(1-(4-chlorobenzamido)ethyl)-3,4-dihydro-1,5-naphthyridine-1(2H)-carboxylate] was tested, and the IC50 [1] was 4950 nM and the IC50 [2] was 1.1 nM.
For `CCC(COC)OC(=O)N1CCCc2nc(C(C)NC(=O)c3ccc(F)cc3)ccc21` (centres unmarked) [Example 331, 1-methoxybutan-2-yl 6-(1-(4-fluorobenzamido)ethyl)-3,4-dihydro-1,5-naphthyridine-1(2H)-carboxylate], the IC50 [1] was 8 nM and the IC50 [2] was 2.02 nM.
`CC(NC(=O)c1ccc(Cl)cc1)c1ccc2c(n1)CCCN2c1ccnc(C(F)(F)F)n1` (centres unmarked) [Example 345, 4-chloro-N-(1-(5-(2-(trifluoromethyl)pyrimidin-4-yl)-5,6,7,8-tetrahydro-1,5-naphthyridin-2-yl)ethyl)benzamide] showed an IC50 [1] of 32 nM and an IC50 [2] of 1.72 nM.
